Measured values reported in PubChem BioAssay AID1963980 (Molecular Pharmacology Branch, DTP, NCI, 2024).

System: 475296-252-R-J1-PDC spheroid viability
Test: Anticancer human tumor 475296-252-R-J1-PDC patient-derived rectal carcinoma cell line growth inhibition [PI3K]
Settings: spheroids with HUVEC and MSC; for IC50: curve of first compound; for viability, T/C: stronger effect = lower value; active means viability on the fitted dose curve at most 10% of control; inactive means the rest
Outline: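 Tumor cells were combined with HUVEC and MSCs into spheroids, then dosed with PI3K-inhibitor combinations over half-log ranges capped near clinical Cmax or 10 microM.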
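Further: spheroids exposed to agents for seven days before readout.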

CCN1CCN(Cc2ccc(Nc3ncc(F)c(-c4cc(F)c5nc(C)n(C(C)C)c5c4)n3)nc2)CC1 + CC(Nc1ncnc2nc[nH]c12)c1cc2cccc(Cl)c2c(=O)n1-c1ccccc1
inactive: viability, T/C (second compound 0.0316 µM, first compound 0.00316 µM) 87% | viability, T/C (second compound 0.0316 µM, first compound 0.01 µM) 101% | viability, T/C (second compound 0.0316 µM, first compound 0.0316 µM) 99.6% | viability, T/C (second compound 0.0316 µM, first compound 0.1 µM) 86.1% | viability, T/C (second compound 0.0316 µM, first compound 0.316 µM) 104% | viability, T/C (second compound 0.0316 µM, first compound 1 µM) 92% | viability, T/C (second compound 0.1 µM, first compound 0.00316 µM) 87.8% | viability, T/C (second compound 0.1 µM, first compound 0.01 µM) 90.9% | viability, T/C (second compound 0.1 µM, first compound 0.0316 µM) 103% | viability, T/C (second compound 0.1 µM, first compound 0.1 µM) 102% | viability, T/C (second compound 0.1 µM, first compound 0.316 µM) 105% | viability, T/C (second compound 0.1 µM, first compound 1 µM) 89.1% | viability, T/C (second compound 0.316 µM, first compound 0.00316 µM) 95.1% | viability, T/C (second compound 0.316 µM, first compound 0.01 µM) 102% | viability, T/C (second compound 0.316 µM, first compound 0.0316 µM) 98.3% | viability, T/C (second compound 0.316 µM, first compound 0.1 µM) 101% | viability, T/C (second compound 0.316 µM, first compound 0.316 µM) 89.4% | viability, T/C (second compound 0.316 µM, first compound 1 µM) 81.2% | viability, T/C (second compound 1 µM, first compound 0.00316 µM) 102% | viability, T/C (second compound 1 µM, first compound 0.01 µM) 92.3% | viability, T/C (second compound 1 µM, first compound 0.0316 µM) 93.8% | viability, T/C (second compound 1 µM, first compound 0.1 µM) 98.5% | viability, T/C (second compound 1 µM, first compound 0.316 µM) 94.6% | viability, T/C (second compound 1 µM, first compound 1 µM) 75.1% | viability, T/C (second compound 3.16 µM, first compound 0.00316 µM) 87.2% | viability, T/C (second compound 3.16 µM, first compound 0.01 µM) 99.3% | viability, T/C (second compound 3.16 µM, first compound 0.0316 µM) 85.1% | viability, T/C (second compound 3.16 µM, first compound 0.1 µM) 102% | viability, T/C (second compound 3.16 µM, first compound 0.316 µM) 92.1% | viability, T/C (second compound 3.16 µM, first compound 1 µM) 79.5% | viability, T/C (second compound 10 µM, first compound 0.00316 µM) 95.5% | viability, T/C (second compound 10 µM, first compound 0.01 µM) 82.4% | viability, T/C (second compound 10 µM, first compound 0.0316 µM) 87.4% | viability, T/C (second compound 10 µM, first compound 0.1 µM) 101% | viability, T/C (second compound 10 µM, first compound 0.316 µM) 96.9% | viability, T/C (second compound 10 µM, first compound 1 µM) 70.5%
> 1000 nM: IC50 (second compound 0.0316 µM) | IC50 (second compound 0.1 µM) | IC50 (second compound 0.316 µM) | IC50 (second compound 1 µM) | IC50 (second compound 3.16 µM) | IC50 (second compound 10 µM)
